2 compounds from PubChem BioAssay AID504 can be followed below.

This assay deals with Ras-related C3 botulinum toxin substrate 3 (Homo sapiens) (UniProt P60763). Kind of assay: RAC3 binders by thermal stabilization, biophysical, recombinant human protein, DSF (AID 504). To be noted: SYPRO orange, at 10 µM, protein 2 µM, buffer 10 mM HEPES, pH 7.5, NaCl 150 mM, stronger effect = higher value.

Structures are written as SMILES.

For `N#CC(C(N)Sc1ccccc1N)C(C#N)C(N)Sc1ccccc1N` (configuration not stated), the Tm shift was 2.4 °C.

In the case of `N#C/C(=C1\Nc2ccccc2S1)c1ccnc(NCCc2cccnc2)n1`, the Tm shift was 2.3 °C.
